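Test compounds were applied to cells in 96-well plates for 48 hours at 5 doses. At the GI50, growth is halved.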 Activity calls are given as the source filed them. No stated cut-off is given here; in the data, active = GI50 up to about 1.1 µM and inactive = higher.
Experiments:
Assay in all cases: DTP human tumour cell line panel, 48 h
RXF 393 = system: RXF 393
COLO 205 = system: COLO 205
LOX IMVI = system: LOX IMVI
OVCAR-4 = system: OVCAR-4
HL-60 = system: HL-60
CCRF-CEM = system: CCRF-CEM
EKVX = system: EKVX
NCI-H23 = system: NCI-H23
SF-539 = system: SF-539
HOP-92 = system: HOP-92
MOLT-4 = system: MOLT-4
SNB-75 = system: SNB-75
HT-29 = system: HT-29
SF-295 = system: SF-295
K562 = system: K562
SN12C = system: SN12C
UO-31 = system: UO-31
HCC 2998 = system: HCC 2998
A549 = system: A549
HCT-15 = system: HCT-15

SMILES	GI50 (RXF 393)	GI50 (COLO 205)	GI50 (LOX IMVI)	GI50 (OVCAR-4)	GI50 (HL-60)	GI50 (CCRF-CEM)	GI50 (EKVX)	GI50 (NCI-H23)	GI50 (SF-539)	GI50 (HOP-92)	GI50 (MOLT-4)	GI50 (SNB-75)	GI50 (HT-29)	GI50 (SF-295)	GI50 (K562)	GI50 (SN12C)	GI50 (UO-31)	GI50 (HCC 2998)	GI50 (A549)	GI50 (HCT-15) [µM]
COc1ccc2cc1Oc1ccc(cc1)C[C@H]1c3cc(c(OC)cc3CCN1C)Oc1c(O)c(OC)cc3c1[C@H](C2)N(C)CC3 [FANGCHINOLINE]	16.5 µM (inactive)	15.8 µM (inactive)	5.3 µM (inactive)	26.5 µM (inactive)	14 µM (inactive)	24.3 µM (inactive)	4.45 µM (inactive)	40 µM (inactive)	20.3 µM (inactive)	7.64 µM (inactive)	11.7 µM (inactive)	28.7 µM (inactive)	22.3 µM (inactive)	16.9 µM (inactive)	11.4 µM (inactive)	38.8 µM (inactive)	25.5 µM (inactive)	17.6 µM (inactive)	31.5 µM (inactive)	13.3
COc1cc(CCCl)c(CC2=NCCc3cc(OC)c(OC)cc32)cc1OC	32.3 µM (inactive)	47.4 µM (inactive)	21.1 µM (inactive)	> 100 µM (inactive)	4.41 µM (inactive)	45.7 µM (inactive)	88.9 µM (inactive)	> 100 µM (inactive)	4.61 µM (inactive)	> 100 µM (inactive)	> 100 µM (inactive)	> 100 µM (inactive)	32.5 µM (inactive)	19.8 µM (inactive)	31 µM (inactive)	80.9 µM (inactive)	69.3 µM (inactive)	61 µM (inactive)	> 100 µM (inactive)	
COc1cc(/C=C/C2=C(C#N)C(=O)OC2(C)C)ccc1O	36.9 µM (inactive)	45.4 µM (inactive)	20.7 µM (inactive)		22.4 µM (inactive)	13.3 µM (inactive)	> 100 µM (inactive)	> 100 µM (inactive)		> 100 µM (inactive)	> 100 µM (inactive)	82.8 µM (inactive)	48.2 µM (inactive)	46.1 µM (inactive)	29.1 µM (inactive)	55 µM (inactive)	44.9 µM (inactive)	71.9 µM (inactive)	> 100 µM (inactive)	28
COC1C=CC(O)C(CO)O1 (configuration not stated)	> 100 µM (inactive)		> 100 µM (inactive)	> 100 µM (inactive)	> 100 µM (inactive)	> 100 µM (inactive)	> 100 µM (inactive)	> 100 µM (inactive)	> 100 µM (inactive)	> 100 µM (inactive)	> 100 µM (inactive)	> 100 µM (inactive)	> 100 µM (inactive)	> 100 µM (inactive)	> 100 µM (inactive)	> 100 µM (inactive)	> 100 µM (inactive)	> 100 µM (inactive)	> 100 µM (inactive)	> 100
N/C(=N\O)N/N=C\c1cc([N+](=O)[O-])cc([N+](=O)[O-])c1O	> 100 µM (inactive)	15.3 µM (inactive)	2.99 µM (inactive)	> 96.2 µM (inactive)	3.36 µM (inactive)	6.61 µM (inactive)	> 100 µM (inactive)	28.8 µM (inactive)	18.4 µM (inactive)	> 100 µM (inactive)	10.2 µM (inactive)		11.4 µM (inactive)	4.16 µM (inactive)	5.26 µM (inactive)	24.2 µM (inactive)	4.67 µM (inactive)	14.5 µM (inactive)	8.51 µM (inactive)	6.14
O=C1Cc2c(-c3ccccc3)cc(-c3cccc(Cl)c3)nc2-c2ccccc2N1	2.15 µM (inactive)	6.62 µM (inactive)	2.04 µM (inactive)	1.5 µM (inactive)	38.7 µM (inactive)	12.1 µM (inactive)	2.29 µM (inactive)	5.24 µM (inactive)	6.34 µM (inactive)	1.34 µM (inactive)	20.1 µM (inactive)	1.77 µM (inactive)	1.73 µM (inactive)	3.56 µM (inactive)	3.33 µM (inactive)	1.26 µM (inactive)	3.14 µM (inactive)	2.09 µM (inactive)	1.82 µM (inactive)	3.42
O=c1cnn(C2OC(CO)C(O)C2O)c(=S)[nH]1 (configuration not stated)	> 100 µM (inactive)	54.1 µM (inactive)	1.24 µM (inactive)	> 100 µM (inactive)	2.05 µM (inactive)	2.52 µM (inactive)	> 100 µM (inactive)	> 94 µM (inactive)	66.5 µM (inactive)	> 100 µM (inactive)	0.938 µM (active)	> 100 µM (inactive)	13.5 µM (inactive)	11.9 µM (inactive)	0.589 µM (active)	> 82 µM (inactive)	28.2 µM (inactive)	> 87.1 µM (inactive)	2.15 µM (inactive)	2.09
C#CC[C@@]12CC(=O)C[C@@H]1CCC1(C2)OCCO1.C#CC[C@]12CC(=O)CC[C@H]1CC(=O)C2	> 100 µM (inactive)	> 100 µM (inactive)	> 100 µM (inactive)	> 100 µM (inactive)	29.1 µM (inactive)	60.1 µM (inactive)	> 100 µM (inactive)	> 100 µM (inactive)	> 100 µM (inactive)	> 100 µM (inactive)	34.4 µM (inactive)	97.7 µM (inactive)	> 100 µM (inactive)	> 100 µM (inactive)	59.7 µM (inactive)	> 100 µM (inactive)	> 100 µM (inactive)	> 100 µM (inactive)	> 100 µM (inactive)	> 100
ClCc1nnc2n1-c1ccc(Cl)cc1SC2	2.23 µM (inactive)	4.06 µM (inactive)	1.49 µM (inactive)	3.89 µM (inactive)	1.56 µM (inactive)	2.19 µM (inactive)	13.3 µM (inactive)	2.35 µM (inactive)	3.47 µM (inactive)	2.55 µM (inactive)	1.45 µM (inactive)	3.15 µM (inactive)	3.65 µM (inactive)	2.21 µM (inactive)	2.9 µM (inactive)	7.26 µM (inactive)	15.1 µM (inactive)	4.06 µM (inactive)	5.05 µM (inactive)	4.56
CN(C(=O)c1ccc(OCCCC(=O)O)c(Cl)c1Cl)C1CCCC1	> 71.1 µM (inactive)	> 100 µM (inactive)	> 100 µM (inactive)	> 100 µM (inactive)	> 72.8 µM (inactive)	> 100 µM (inactive)	> 100 µM (inactive)	> 76.7 µM (inactive)	> 100 µM (inactive)	45.3 µM (inactive)	> 100 µM (inactive)	80.4 µM (inactive)	> 100 µM (inactive)	> 72.6 µM (inactive)	> 100 µM (inactive)	> 100 µM (inactive)	> 60 µM (inactive)	> 100 µM (inactive)	> 100 µM (inactive)	> 100
CSc1nc2c(ncn2C2OCC(O)C(O)C2O)c(=O)n1C (configuration not stated)	> 100 µM (inactive)	> 100 µM (inactive)	> 100 µM (inactive)	> 100 µM (inactive)	> 100 µM (inactive)	> 100 µM (inactive)	> 100 µM (inactive)	> 100 µM (inactive)	> 100 µM (inactive)	> 100 µM (inactive)	> 100 µM (inactive)	73.6 µM (inactive)	> 100 µM (inactive)	> 100 µM (inactive)	> 100 µM (inactive)	> 100 µM (inactive)	> 100 µM (inactive)	> 100 µM (inactive)	> 100 µM (inactive)	> 100
Nc1nnc(N)n1NC(=O)C(=O)Nc1ccc([N+](=O)[O-])cc1	> 100 µM (inactive)	> 100 µM (inactive)	> 100 µM (inactive)	> 100 µM (inactive)	> 100 µM (inactive)	> 100 µM (inactive)	> 100 µM (inactive)	> 100 µM (inactive)	> 100 µM (inactive)	> 100 µM (inactive)	> 100 µM (inactive)	> 100 µM (inactive)	> 100 µM (inactive)	> 100 µM (inactive)	98.9 µM (inactive)	> 100 µM (inactive)	> 100 µM (inactive)	> 100 µM (inactive)	> 100 µM (inactive)	> 100
COc1ccc(Sc2ccccc2N)cc1	25.5 µM (inactive)	17 µM (inactive)	64 µM (inactive)	34.8 µM (inactive)	18.8 µM (inactive)	14.4 µM (inactive)	53.7 µM (inactive)	43.6 µM (inactive)	29.6 µM (inactive)	21.1 µM (inactive)	26.9 µM (inactive)	19.6 µM (inactive)	23.3 µM (inactive)	39.3 µM (inactive)	41.6 µM (inactive)	33.1 µM (inactive)	21.8 µM (inactive)	41 µM (inactive)	55 µM (inactive)	37
CN(CCCCCl)P(=O)(OCC1=CC(=O)c2ccccc2C1=O)OC[C@H]1O[C@@H](n2cc(F)c(=O)[nH]c2=O)C[C@@H]1O (some centres not stated)	0.0625 µM (active)		< 0.01 µM (active)	0.681 µM (active)	0.69 µM (active)	< 0.01 µM (active)	3.18 µM (inactive)	0.0532 µM (active)	< 0.0244 µM (active)	< 0.0285 µM (active)		< 0.0176 µM (active)		< 0.0175 µM (active)	1.5 µM (inactive)	< 0.0323 µM (active)	< 0.01 µM (active)	< 0.01 µM (active)	< 0.01 µM (active)	3.66

Reference: ChEMBL document CHEMBL1201862, “PubChem BioAssay data set” (2004)
